For assay [1], the target named is T1, KRas-mediated phosphorylation of ERK in H358 cells (Homo sapiens, UniProt P01116, G12C).
T1 construct: pERK HTRF read-out
In words: Inhibition of KRas-mediated phosphorylation of ERK (HTRF), H358 cells. In kind it is cell-based. As to conditions: HTRF pERK, 3 h incubation. A general note: Time-resolved FRET reads energy transfer from a long-lived donor to a nearby acceptor.

The target in assay [2] is T2, KRas-mediated phosphorylation of ERK in MKN1 cells (Homo sapiens, UniProt P01116).
T2 construct: pERK HTRF read-out
Put plainly: Inhibition of KRas-mediated phosphorylation of ERK (HTRF), MKN1 cells. In kind it is cell-based. To be noted: MKN1 cells (KRas WT); HTRF pERK; 3 h incubation. The procedure: Inhibition of KRas Phosphorylation of ERK (HTRF) by Exemplary Compounds of Formula (Ia) or (Ib)
Cisbio HTRF Advanced pERK Assay Catalog #64AERPEH • Cells: MKN1, PSN1 • Procedure: • 1. Day 1: Seed 6,000 cells/well −25 μl/well in 384-well white solid bottom plate; RPM1_10% FBS. Incubate overnight at 37 °C/5% CO2. • 2.

The target of assay [3] is T3, KRas-mediated phosphorylation of ERK in A549 cells (Homo sapiens, UniProt P01116, G12S).
T3 construct: pERK HTRF read-out
Put plainly: Inhibition of KRas-mediated phosphorylation of ERK (HTRF), A549 cells. In kind it is cell-based. As to conditions: HTRF pERK, 3 h incubation.

The target of assay [4] is T4, KRas G12S (Homo sapiens, UniProt P01116, G12S).
T4 construct: Biotinylated KRas (corresponding to amino acids 1-169, produced at Accelegan Inc.); biotin (biotinylated); purchased Accelegan Inc
Put plainly: KRas binding assay, TR-FRET displacement of Cy5 labelled tracer. To be noted: 60-minute incubation at room temperature, 1% DMSO, pH 7.5. The gist of the method: (§1)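 Tb-streptavidin captured biotinylated KRas (1-169) in HEPES 50 mM, DTT 1 mM, MgCl2 5 mM, Tween-20 0.005% (pH 7.5), alongside tracer and compound at 1% final DMSO. One hour at RT, then read; IC50 from 4-parameter POC fit.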

Assay [5] has as its target T5, KRas WT (Homo sapiens, UniProt P01116).
T5 construct: Biotinylated KRas (corresponding to amino acids 1-169, produced at Accelegan Inc.); biotin (biotinylated); purchased Accelegan Inc
The assay is described as above. As to conditions: 60-minute incubation at room temperature, 1% DMSO, pH 7.5. The gist of the method:
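Assay buffer was HEPES (50 mM, pH 7.5) with MgCl2 (5 mM), DTT (1 mM) and Tween-20 (0.005%). Biotinylated KRas spanning residues 1-169 met tracer, terbium streptavidin and compound (1% DMSO, final) for 60 minutes at ambient temperature before reading. POC values were fitted for IC50.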

Assay [6] has as its target T6, KRas G12C (Homo sapiens, UniProt P01116, G12C).
T6 construct: Biotinylated KRas (corresponding to amino acids 1-169, produced at Accelegan Inc.); biotin (biotinylated); purchased Accelegan Inc
The assay is described as above. To be noted: 60-minute incubation at room temperature, 1% DMSO, pH 7.5. The gist of the method:
as §1

Molecules are shown by their SMILES. Where only a bound is given, the exact number is not on record here.

By IC50 is commonly meant the point on the concentration scale where inhibition reaches its midpoint. Lower therefore signals higher potency.

T5 sequence (P01116 1-169 isoform P01116-2): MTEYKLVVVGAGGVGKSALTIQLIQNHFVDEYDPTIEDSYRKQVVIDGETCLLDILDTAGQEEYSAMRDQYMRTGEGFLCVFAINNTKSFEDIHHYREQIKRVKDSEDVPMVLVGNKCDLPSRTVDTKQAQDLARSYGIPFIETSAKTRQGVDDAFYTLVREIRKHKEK
T3 sequence (P01116 1-188 isoform P01116-2 G12S): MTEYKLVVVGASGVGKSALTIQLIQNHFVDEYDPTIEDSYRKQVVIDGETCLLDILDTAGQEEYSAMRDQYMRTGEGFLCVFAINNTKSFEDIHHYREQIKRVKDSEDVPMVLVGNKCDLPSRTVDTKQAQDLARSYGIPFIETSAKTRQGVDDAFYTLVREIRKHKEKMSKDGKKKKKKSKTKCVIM
T6 sequence (P01116 1-169 isoform P01116-2 G12C): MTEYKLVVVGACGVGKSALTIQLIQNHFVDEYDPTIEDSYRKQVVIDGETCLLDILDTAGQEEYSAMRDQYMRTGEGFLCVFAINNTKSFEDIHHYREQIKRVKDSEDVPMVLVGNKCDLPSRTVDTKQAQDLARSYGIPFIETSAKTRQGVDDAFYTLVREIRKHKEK
T2 sequence (P01116 1-188 isoform P01116-2): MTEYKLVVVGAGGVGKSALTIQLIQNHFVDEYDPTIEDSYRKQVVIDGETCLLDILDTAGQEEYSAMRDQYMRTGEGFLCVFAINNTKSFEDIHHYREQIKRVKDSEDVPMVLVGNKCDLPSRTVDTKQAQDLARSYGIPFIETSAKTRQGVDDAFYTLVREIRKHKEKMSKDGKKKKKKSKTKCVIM
T1 sequence (P01116 1-188 isoform P01116-2 G12C): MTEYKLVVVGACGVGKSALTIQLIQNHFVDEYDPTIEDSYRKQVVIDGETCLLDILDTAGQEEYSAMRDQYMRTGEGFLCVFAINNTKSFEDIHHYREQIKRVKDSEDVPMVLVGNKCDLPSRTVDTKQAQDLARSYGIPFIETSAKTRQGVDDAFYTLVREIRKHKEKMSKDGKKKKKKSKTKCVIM
T4 sequence (P01116 1-169 isoform P01116-2 G12S): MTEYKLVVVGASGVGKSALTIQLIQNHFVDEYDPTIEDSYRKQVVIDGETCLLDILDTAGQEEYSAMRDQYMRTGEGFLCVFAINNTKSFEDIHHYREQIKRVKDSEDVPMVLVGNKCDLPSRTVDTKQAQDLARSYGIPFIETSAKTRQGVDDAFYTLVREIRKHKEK

For the compound `N#Cc1c(N)sc2c(F)ccc(-c3c(Cl)cc4c(N5CCC(C(=O)n6cccn6)CC5)nc(OC[C@@]56CCCN5C[C@H](F)C6)nc4c3F)c12` [Example 129, 4-(4-(4-(1H-pyrazole-1-carbonyl)piperidin-1-yl)-6-chloro-8-fluoro-2-(((2R,7aS)-2-fluorotetrahydro-1H-pyrrolizin-7a(5H)-yl)methoxy)quinazolin-7-yl)-2-amino-7-fluorobenzo[b]thiophene-3-carbonitrile], the IC50 turned out to be 26 nM in assay [1]; 139 nM in assay [2]; 4 nM in assay [3]; 5 nM in assay [4]; 8 nM in assay [5]; 7 nM in assay [6].
`CCc1c(F)ccc2cc(O)cc(-c3ncc4c(N5CCC(C(=O)n6cc(OC)cn6)CC5)nc(OC[C@@]56CCCN5C[C@H](F)C6)nc4c3F)c12` [Example 294, (1-(7-(8-ethyl-7-fluoro-3-hydroxynaphthalen-1-yl)-8-fluoro-2-(((2R,7aS)-2-fluorotetrahydro-1H-pyrrolizin-7a(5H)-yl)methoxy)pyrido[4,3-d]pyrimidin-4-yl)piperidin-4-yl)(4-methoxy-1H-pyrazol-1-yl)methanone]: the IC50 worked out at 4490 nM in assay [1]; 3870 nM in assay [2]; 74 nM in assay [3]; 22 nM in assay [4]; 130 nM in assay [5]; 61 nM in assay [6].
Turning to `CC(=O)N(C)C(=O)[C@@H]1C[C@@H]2CN(c3nc(OC[C@@]45CCCN4C[C@H](F)C5)nc4c(F)c(-c5ccc(F)c6sc(N)c(C#N)c56)c(Cl)cc34)C[C@@H]2C1` [Example 237, (3aR,5R,6aS)-N-acetyl-2-((S)-7-(2-amino-3-cyano-7-fluorobenzo[b]thiophen-4-yl)-6-chloro-8-fluoro-2-(((2R,7aS)-2-fluorotetrahydro-1H-pyrrolizin-7a(5H)-yl)methoxy)quinazolin-4-yl)-N-methyloctahydrocyclopenta[c]pyrrole-5-carboxamide], the IC50 in assay [1] is 69 nM; in assay [2] it was 70 nM; in assay [3], 17 nM; in assay [4], 6 nM; in assay [5], 15 nM; in assay [6], 18 nM.
For `CCc1c(F)ccc2cc(O)cc(-c3ncc4c(N5CC6CCC(C5)C6C(=O)n5cccn5)nc(OC[C@@]56CCCN5C[C@H](F)C6)nc4c3F)c12` (stereo partly drawn) [Example 59, ((1R,5S,8S)-3-(7-(8-ethyl-7-fluoro-3-hydroxynaphthalen-1-yl)-8-fluoro-2-(((2R,7aS)-2-fluorotetrahydro-1H-pyrrolizin-7a(5H)-yl)methoxy)pyrido[4,3-d]pyrimidin-4-yl)-3-azabicyclo[3.2.1]octan-8-yl)(1H-pyrazol-1-yl)methanone], the half-maximal inhibitory concentration (IC50) in assay [1] is 486 nM; in assay [2] it was 27 nM; in assay [3], 372 nM; in assay [4], below 2 nM; in assay [5], below 2 nM; in assay [6], 8 nM.
As to `CCc1c(F)ccc2cc(O)cc(-c3ncc4c(N5CCC(C)(C(=O)n6ccc(C)n6)CC5)nc(OC[C@@]56CCCN5C[C@H](F)C6)nc4c3F)c12` [Example 83, (1-(7-(8-ethyl-7-fluoro-3-hydroxynaphthalen-1-yl)-8-fluoro-2-(((2R,7aS)-2-fluorotetrahydro-1H-pyrrolizin-7a(5H)-yl)methoxy)pyrido[4,3-d]pyrimidin-4-yl)-4-methylpiperidin-4-yl)(3-methyl-1H-pyrazol-1-yl)methanone], the IC50 worked out at 1410 nM in assay [1]; 2990 nM in assay [2]; 1170 nM in assay [3]; 402 nM in assay [4]; 790 nM in assay [5]; 107 nM in assay [6].
On to `CCc1c(F)ccc2cc(O)cc(-c3ncc4c(N5CCC(C(=O)n6ccc(OC)n6)CC5)nc(OC[C@@]56CCCN5C[C@H](F)C6)nc4c3F)c12` [Example 61, (1-(7-(8-ethyl-7-fluoro-3-hydroxynaphthalen-1-yl)-8-fluoro-2-(((2R,7aS)-2-fluorotetrahydro-1H-pyrrolizin-7a(5H)-yl)methoxy)pyrido[4,3-d]pyrimidin-4-yl)piperidin-4-yl)(3-methoxy-1H-pyrazol-1-yl)methanone], for which the IC50 turned out to be 8570 nM in assay [1]; 2610 nM in assay [2]; 84 nM in assay [3]; 34 nM in assay [4]; 136 nM in assay [5]; 336 nM in assay [6].
With `CCc1c(F)ccc2cc(O)cc(-c3ncc4c(N5CC(CC(=O)n6ccc(C)n6)C5)nc(OC[C@@]56CCCN5C[C@H](F)C6)nc4c3F)c12` [Example 84, 2-(1-(7-(8-ethyl-7-fluoro-3-hydroxynaphthalen-1-yl)-8-fluoro-2-(((2R,7aS)-2-fluorotetrahydro-1H-pyrrolizin-7a(5H)-yl)methoxy)pyrido[4,3-d]pyrimidin-4-yl)azetidin-3-yl)-1-(3-methyl-1H-pyrazol-1-yl) ethan-1-one], the half-maximal inhibitory concentration (IC50) in assay [1] amounted to 7600 nM; in assay [2] it was 6390 nM; in assay [3], 55 nM; in assay [4] it was 7 nM; in assay [5], 154 nM; in assay [6], 53 nM.
As for `CCc1c(F)ccc2cc(O)cc(-c3ncc4c(N5CCC(C(=O)OC)CC5)nc(OC[C@@]56CCCN5C[C@H](F)C6)nc4c3F)c12` [Example 16, methyl 1-(7-(8-ethyl-7-fluoro-3-hydroxynaphthalen-1-yl)-8-fluoro-2-(((2R,7aS)-2-fluorotetrahydro-1H-pyrrolizin-7a(5H)-yl)methoxy)pyrido[4,3-d]pyrimidin-4-yl)piperidine-4-carboxylate], the IC50 in assay [1] turned out to be 428 nM; in assay [2] it was 70 nM; in assay [3] it was 337 nM; in assay [4], 44 nM; in assay [5], 23 nM; in assay [6] it was 54 nM.
Turning to `CCc1c(F)ccc2cc(O)cc(-c3ncc4c(NCC5CC(C(=O)N(C)C(C)=O)C5)nc(OC[C@@]56CCCN5C[C@H](F)C6)nc4c3F)c12` (stereo partly drawn) [Example 280, N-acetyl-3-(((7-(8-ethyl-7-fluoro-3-hydroxynaphthalen-1-yl)-8-fluoro-2-(((2R,7aS)-2-fluorotetrahydro-1H-pyrrolizin-7a(5H)-yl)methoxy)pyrido[4,3-d]pyrimidin-4-yl)amino)methyl)-N-methylcyclobutane-1-carboxamide], the IC50 came to 428 nM in assay [1]; 102 nM in assay [2]; 107 nM in assay [3]; 14 nM in assay [4]; 9 nM in assay [5]; 17 nM in assay [6].
`CCc1c(F)ccc2cc(O)cc(-c3ncc4c(N5CCN(C(=O)n6ccnc6)CC5)nc(OC[C@@]56CCCN5C[C@H](F)C6)nc4c3F)c12` [Example 150, (4-(7-(8-ethyl-7-fluoro-3-hydroxynaphthalen-1-yl)-8-fluoro-2-(((2R,7aS)-2-fluorotetrahydro-1H-pyrrolizin-7a(5H)-yl)methoxy)pyrido[4,3-d]pyrimidin-4-yl)piperazin-1-yl)(1H-imidazol-1-yl)methanone]: the IC50 in assay [1] came to 39 nM; in assay [2] it was 40 nM; in assay [3] it was 1580 nM; in assay [4], 3 nM; in assay [5], 2 nM; in assay [6], 5 nM.
With `CCc1c(F)ccc2cc(O)cc(-c3ncc4c(N5C[C@@H](C)N(C(=O)n6ccc(C)n6)[C@@H](C)C5)nc(OC[C@@]56CCCN5C[C@H](F)C6)nc4c3F)c12` [Example 81, ((2S,6R)-4-(7-(8-ethyl-7-fluoro-3-hydroxynaphthalen-1-yl)-8-fluoro-2-(((2R,7aS)-2-fluorotetrahydro-1H-pyrrolizin-7a(5H)-yl)methoxy)pyrido[4,3-d]pyrimidin-4-yl)-2,6-dimethylpiperazin-1-yl)(3-methyl-1H-pyrazol-1-yl)methanone], the IC50 in assay [1] worked out at 2160 nM; in assay [2] it was 192 nM; in assay [3] it was 3770 nM; in assay [4], 93 nM; in assay [5], 32 nM; in assay [6], 165 nM.
On to `CCc1c(F)ccc2cc(O)cc(-c3ncc4c(N5CCN(C(=O)n6nccn6)CC5)nc(OC[C@@]56CCCN5C[C@H](F)C6)nc4c3F)c12` (single isomer, unassigned) [Example 152], for which the IC50 in assay [1] amounted to 83 nM; in assay [2], 251 nM; in assay [3] it was 2180 nM; in assay [4] it was 84 nM; in assay [5] it was 39 nM; in assay [6], 73 nM.
`CCc1c(F)ccc2cc(O)cc(-c3ncc4c(N5CCN(C(=O)n6ccc(C)n6)C6(CC6)C5)nc(OC[C@@]56CCCN5C[C@H](F)C6)nc4c3F)c12` (single isomer, unassigned) [Example 78]: the IC50 in assay [1] is 1250 nM; in assay [2], 90 nM; in assay [3] it was 3820 nM; in assay [4] it was 146 nM; in assay [5], 25 nM; in assay [6], 128 nM.

Source of the values: patent US20260356856A1, “KRAS G12S AND G12C INHIBITORS” (MIRATI THERAPEUTICS, INC., priority 2023, published 2026).
